Measured values: patent US11440923B2, “Substituted macrocyclic indole derivatives” (Bayer Aktiengesellschaft, priority 2017, dated 2022)
Structures can show the parent of a compound that is named as a salt. Where two headings read alike, the source gives them in different places.

How the values were obtained:
MV-4-11 cells = experiment: Antiproliferation assay MV-4-11 (Assay 7); assay type: cell-based; settings: read-out: Antiproli MV-4-11 IC50 median, CellTiter-Glo
Procedure, shortened: (§1)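 IC50 values reflect growth relative to a day 0 baseline (CI) and DMSO vehicle (C0). Viable cells were quantified by CellTiter-Glo luminescence after 72 h treatment at 37 °C.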

MCL-1 = MCL-1 (Homo sapiens (Human), UniProt Q07820, K194A/K197A/R201A); experiment: Protein-compound interaction assay (SPR assay, Assay 9); assay type: binding; settings: for Kd: KD (geometric mean); for koff: read-out: koff (geometric mean), SPR, 25° C.
Sequence of MCL-1 (Q07820 whole entry K194A/K197A/R201A, looked up): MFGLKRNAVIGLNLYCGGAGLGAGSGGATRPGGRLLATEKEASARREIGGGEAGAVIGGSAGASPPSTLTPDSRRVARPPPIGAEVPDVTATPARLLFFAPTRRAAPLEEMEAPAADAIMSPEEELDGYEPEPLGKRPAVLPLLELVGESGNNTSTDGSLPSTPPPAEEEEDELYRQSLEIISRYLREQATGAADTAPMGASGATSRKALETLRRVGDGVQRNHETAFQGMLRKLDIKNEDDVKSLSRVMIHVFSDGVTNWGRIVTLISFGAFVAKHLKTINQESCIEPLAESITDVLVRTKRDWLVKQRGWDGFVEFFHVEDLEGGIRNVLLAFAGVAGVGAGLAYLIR

[1] = molecular target: MCL1 protein / biotinylated BIM BH3 peptide in RKO cells (Homo sapiens (Human), UniProt Q07820); experiment: PIxEL: protein-protein interaction in permeabilized cells by ELISA (Assay 5); assay type: cell-based; settings: PIxEL IC50 (median)
Sequence of MCL1 protein / biotinylated BIM BH3 peptide in RKO cells (Q07820 whole entry): as the sequence (Q07820 whole entry K194A/K197A/R201A, looked up) above, with A194K, A197K, A201R counted along it
Procedure, shortened: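 Digitonin (0.002%)-permeabilized RKO cells in MEB buffer pH 7.5 were treated with compound (3-fold series, top 30 μM) plus 0.2 μM biotin-BIM BH3 peptide for 1 h at room temperature. Lysates were captured on anti-MCL1 ELISA plates and bound peptide read by streptavidin-HRP luminescence. IC50 came from signal normalized to no-compound and no-cell controls.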

A2780 cells = experiment: Antiproliferation assay A2780 (Assay 7); assay type: cell-based; settings: Homo sapiens
Procedure, shortened: as §1

## CCc1c2c(nn1C)C(CCN1CCOCC1)OCCCCn1c(C(=O)O)c(CCCOc3cccc4ccccc34)c3ccc(F)c-2c31 (single isomer, unassigned; enantiomer 1) [Example 11, 3-ethyl-4-fluoro-2-methyl-15-[2-(morpholin-4-yl)ethyl]-7-{3-[(naphthalen-1-yl)oxy]propyl}-2,10,11,12,13,15-hexahydropyrazolo[4′,3′:9,10][1,6]oxazacycloundecino[8,7,6-hi]indole-8-carboxylic Acid—N-ethylethanamine Salt (Enantiomer 1)]
MV-4-11 cells; 72 h
  IC50: 144 nM
MCL-1; SPR, 25° C.
  Kd: 0.61 nM
  kon (geometric mean): 6.2 E6 1/M 1/s
MCL-1
  koff: 0.0038 s⁻¹
[1]; uM
  IC50: > 30 µM
A2780 cells; A2780, 72 h, read-out: Antiproli A2780 IC50 median, 72 h, CellTiter-Glo
  IC50: 779 nM

## CCc1c2c(nn1C)C(CCN1CCOCC1)OCCCCn1c(C(=O)O)c(CCCOc3cccc4ccccc34)c3ccc(F)c-2c31 (racemic) [Example 10, (rac)-3-ethyl-4-fluoro-2-methyl-15-[2-(morpholin-4-yl)ethyl]-7-[3-(naphthalen-1-yloxy)propyl]-2,10,11,12,13,15-hexahydropyrazolo[4′,3′:9,10][1,6]oxazacycloundecino[8,7,6-hi]indole-8-carboxylic Acid]
MV-4-11 cells; Homo sapiens, MV4-11, 72 h
  IC50: 110 nM
MCL-1; SPR, 25° C.
  Kd: 1.1 nM
MCL-1
  koff: 0.01 s⁻¹
MCL-1; read-out: kon (geometric mean), SPR, 25° C.
  kon: 9e+06 M⁻¹ s⁻¹
[1]
  IC50: 0.325 µM
A2780 cells; A2780, 72 h, CellTiter-Glo, read-out: Antiproli A2780 IC50 median
  IC50: 3430 nM
